Laboratory results reported in PMC6842543, “Antiparasitic effect of synthetic aromathecins on Leishmania infantum” (BMC Veterinary Research, 2019).
Entries after “also recorded” stand apart in the source; their conditions may differ. Read-outs that look alike come from different tables or passages of the source.

What was measured:
L. infantum amastigotes = experiment: Ex vivo murine splenic explant culture with intramacrophagic iRFP L. infantum amastigotes; type: cell-based, Leishmania infantum; conditions: for SI: Selectivity Index = CC50/EC50 (amastigotes): CC50 murine splenocytes / EC50 amastigotes; for EC50: Leishmania infantum, splenic-infecting amastigotes, ex vivo explants from infected BALB/c mice, 72 h, read-out: EC50 L. infantum amastigotes
Experimental: (§1) Two series of aromathecins (Table 1) have been tested against both stages of L. infantum, free-living promastigotes and intracellular amastigotes harbored in mouse splenic cells. Experiments were carried out using a genetically modified L. infantum strain that constitutively produces the iRFP protein. This makes it possible to evaluate the viability of parasites measuring the fluorescence emitted at 708 nm.
Primary splenocyte cultures containing intramacrophagic amastigotes were obtained from dissected spleens of female BALB/c mice infected intraperitoneally with 1.5 × 10^9 metacyclic iRFP L. infantum promastigotes, 5 weeks before their sacrifice. Mice were obtained commercially (Janvier-Labs). Animals were housed in specific-pathogen free facilities and they were euthanized by cervical dislocation without anesthesia. These protocols were approved by the Animal Care Committee of University of Leon (project license SAF2017–83575-R), which complies with European Union Legislation (2010/63/UE) and Spanish Act (RD 53/2013).
(§2) The spleens were washed with cold phosphate-buffered saline (PBS), cut in small pieces and incubated for 20 min with 5 mL of 2 mg/mL collagenase D (Sigma) prepared in buffer (10 mM HEPES, pH 7.4, 150 mM NaCl, 5 mM KCl, 1 mM MgCl2 and 1.8 mM CaCl2). After that, the cell suspension obtained was passed through a 100 μm cell strainer, harvested by centrifugation (500×g for 7 min at 4 °C), washed twice with PBS, and cultured at 37 °C under 5% CO2 atmosphere in RPMI medium (Gibco) supplemented with 10 mM HEPES, 1 mM sodium pyruvate, 1xRPMI 1640 vitamin mix, 10% (v/v) FBS, 50 U/mL penicillin and 50 μg/mL streptomycin (Calvo-Álvarez et al., 2015).
(§3) The viability of cultured parasites in the presence of different concentrations of aromathecins was determined by measuring the reduction of infrared fluorescence emitted by free-living promastigotes/amastigotes with respect to negative controls of each form of the parasite treated with DMSO (up to 0.1% final concentration) as a vehicle. […] After 72 h incubation at 26 °C, the infrared fluorescence emitted at 708 nm by viable promastigotes/amastigotes was measured in an Odyssey (Li-Cor) infrared imaging system. Similarly, the cytotoxic effect (CC50) of aromathecins on uninfected splenic explants from BALB/c mice (cells that naturally harbor the amastigote stage) was measured by the Alamar Blue (Invitrogen) assay. The selectivity index (SI) was determined as the relationship between the CC50 value and the EC50 value for amastigotes. CC50 and EC50 were calculated by nonlinear analysis using the Sigma-Plot 10.0 statistical package. The aromathecins were dissolved in DMSO and stored at − 20 °C before their use as fresh aliquots.

recombinant LTopIB = experiment: TopIB relaxation activity assay (supercoiled pBluescript-SK plasmid, agarose gel with ethidium bromide); type: biochemical, Leishmania; conditions: for Inhibition of LTopIB relaxation activity (in words): 0.01, 0.1, 1, 10 and 100 μM, 26 °C, 4 min; for Total inhibition of LTopIB: only at high concentration (100 μM)
Experimental: In addition to the antileishmanial effect of these compounds, their activity as LTopIB inhibitors was analyzed in vitro (Fig. 2). Recombinant LTopIB was produced in a TopIB-defective yeast platform, and purified by standard chromatographic protocols. The effect of aromathecins (comp. 1 to 10) on LTopIB was addressed by measuring the relaxation of negatively supercoiled pBluescript-SK DNA plasmid in the presence of different concentrations of these molecules. In order to separate the nicked DNA generated by the cleavage-complex stabilization from the relaxed topoisomers, gels were run in the presence of ethidium bromide.
Fig. 2 Inhibition of LTopIB relaxation activity of negatively supercoiled pBluescript SK (−) plasmid (pSK) mediated by different aromathecins concentrations (0.01, 0.1, 1, 10 and 100 μM). The control reaction contained 1% DMSO. DNA was separated by gel electrophoresis in 1% agarose containing 0.1 μg/mL ethidium bromide. Gels were visualized with UV illumination. Key: R = relaxed DNA; Sc = supercoiled DNA; N = nicked DNA
Expression and purification of LTopIB were carried out according to a previously standardized protocol. LTopIB was purified from yeast strain EKY3 deficient in TopIB activity [MATα, ura3–52, his3Δ200, leu2Δ1, trp1Δ63, top1Δ:TRP1], transfected with the pESC-URA plasmid containing both subunits of LTopIB. Cells were grown in yeast synthetic drop-out medium without uracil (Sigma) supplemented with 2% raffinose (w/v) to OD600: 0.8–1 and induced for 10 h with 2% galactose (w/v). Yeast were harvested, washed with cold TEEG buffer (50 mM Tris-HCl pH 7.4, 1 mM EDTA, 1 mM EGTA, 10% glycerol) and resuspended to their lysis in 15 mL of 1 x TEEG buffer supplemented with 0.2 M KCl and a protease inhibitors cocktail (Thermo Scientific). Protein extract obtained was loaded on a 5 mL P-11 phosphocellulose column (Whatman International Ltd. England). LTopIB protein was eluted at 4 °C with a discontinuous gradient of KCl (0.2, 0.4, 0.6 M) in TEEG buffer.
The effect of aromathecins on recombinant LTopIB was determined by measuring the relaxation of negatively supercoiled pBluescript-SK DNA plasmid (pSK). Thus, 20 μL of reaction mixture (0.5 μg pSK; 10 mM Tris-HCl pH 7.5; 5 mM MgCl2; 0.1 mM EDTA; 15 μg/mL bovine serum albumin) along with 0.01, 0.1, 1, 10 and 100 μM of the different aromathecins were incubated at 26 °C during 4 min. The control reaction performed without aromathecins contained 1% DMSO. Reactions were stopped by adding 1% SDS (final concentration), digested with 1 mg/mL proteinase K at 37 °C during 1 h and extracted with phenol/chloroform. DNA was separated by gel electrophoresis in 1% agarose containing 0.1 μg/mL ethidium bromide in 0.1 M Tris borate EDTA buffer (pH 8.0) at 4 V/cm for 16 h. Gels were visualized with UV illumination.

[1] = test system: L. infantum promastigotes; experiment: In vitro iRFP L. infantum promastigotes viability assay (infrared fluorescence); type: cell-based, Leishmania infantum; conditions: Leishmania infantum; iRFP-L. infantum promastigotes, 72 h, 26 °C, fluorescence at 708 nm; average of three experiments by duplicate; read-out: EC50 L. infantum promastigotes
Experimental: as §1
The antiparasitic activity of the compounds was assessed on the genetically modified iRFP L. infantum strain, which constitutively produces the infrared fluorescent protein (iRFP) when cells are viable. iRFP L. infantum was grown at 26 °C in M-199 medium (Gibco) supplemented with 25 mM HEPES pH 7.2, 0.1 mM adenine, 0.0005% (w/v) hemin, 2 μg/mL biopterin, 0.0001% (w/v) biotin, 10% (v/v) heat-inactivated fetal bovine serum (FBS) and an antibiotic cocktail comprising 50 U/mL penicillin and 50 μg/mL streptomycin.
as §3

[2] = Cytotoxicity on uninfected splenic explants (Alamar Blue); type: cell-based, BALB/c mice; conditions: mouse, uninfected splenic explants from BALB/c mice, Alamar Blue
Experimental: as §2, §3

L. infantum WT strain = experiment: Susceptibility of WT strain promastigotes; type: cell-based, Leishmania infantum
Experimental: (§4) In order to evaluate if aromathecins would share the transporter involved in CPT resistance, one of the major problems related to the loss of effectiveness of CPT derivatives, a CPT-resistant strain was generated. The CPT-resistant strain used was generated by the exposure of L. infantum promastigotes to increasing concentrations of CPT, from 0.1 to 20 μM (CPT-20, from now on). […] Therefore, it is very likely that the resistance mechanism of CPT-20 is related to the overexpression of the ABCG6 transporter previously described as the drug-efflux pump involved in the CPT resistance mechanism. The CPT-20 strain was susceptible to the aromathecins assayed in this work (2, 5 and 10 were not assayed due to their poor effect against iRFP L. infantum promastigotes), showing very similar EC50 values to those obtained with iRFP L. infantum.

[3] = test system: CPT-20 (CPT-resistant L. infantum promastigotes); experiment: Susceptibility of CPT-resistant strain CPT-20 promastigotes; type: cell-based, Leishmania infantum; conditions: read-out: EC50 in CPT-20 strain
Experimental: as §4
The CPT resistant strain used in this work was generated exposing L. infantum promastigotes to increased concentrations of CPT, from 0.1 to the solubility limit of the compound, 20 μM in the case of CPT. Parasites were grown at 26 °C in M199 medium supplemented as described previously, each culture being inoculated at an initial density of 10^6 cells/mL. The promastigotes cultured in liquid medium in the presence of 20 μM CPT, were plated on semisolid M199 medium containing 20 μM CTP in order to select a single colony.

[4] = uninfected splenic explants (murine splenocytes)

SMILES | SI: Selectivity Index = CC50/EC50 (amastigotes) (L. infantum amastigotes) | EC50 (L. infantum amastigotes) | Inhibition of LTopIB relaxation activity (in words) (recombinant LTopIB) | EC50 [1] | CC50 at 72 h [2, 4] | also measured
O=c1c2ccccc2cc2n1Cc1c-2nc2cccc(Cl)c2c1CNCCCn1ccnc1 [Compound 6] | 3.7 | 0.19 ± 0.03 µM | did not have any inhibitory effect; also recorded: do not have LTopIB inhibitory activity | 3.33 ± 0.17 µM | 0.7 ± 0.12 µM | 
NCCCc1c2c(nc3cc4c(cc13)OCCO4)-c1cc3ccccc3c(=O)n1C2 [Compound 7] |  | 1.11 ± 0.08 µM | partial inhibition | 13.3 ± 2.74 µM |  | Concentration at which partial inhibition of LTopIB started (recombinant LTopIB; not concentration dependent): 0.01 µM; Total inhibition of LTopIB (recombinant LTopIB): total inhibition; CC50 at 72 h ([2]; read-out: CC50 Murine Splenocytes): 0.31 ± 0.04 µM
CN(C)Cc1c2c(nc3cc4c(cc13)OCCO4)-c1cc3ccccc3c(=O)n1C2 [Compound 8] | 10.6 | 0.35 ± 0.03 µM |  | 5.09 ± 0.82 µM | 3.72 ± 0.76 µM | Nicked DNA from cleavage-complex stabilization (recombinant LTopIB; gel run in the presence of ethidium bromide): weak band of nicked DNA; also recorded: nick DNA from cleavage-complex stabilization
CN(C)CCCc1c2c(nc3cc4c(cc13)OCCO4)-c1cc3ccccc3c(=O)n1C2 [Compound 9] | 8.0 | 0.37 ± 1.06 µM | only happed at a high concentration | 3.03 ± 0.45 µM | 3.04 ± 1.06 µM | Total inhibition of LTopIB (recombinant LTopIB): total inhibition
O=c1c2ccccc2cc2n1Cc1c-2nc2cc3c(cc2c1Cn1ccnc1)OCCO3 [Compound 10] | 9.3 | 0.58 ± 0.05 µM | did not have any inhibitory effect; also recorded: do not have LTopIB inhibitory activity | > 20 µM | 5.56 ± 1.13 µM | 
CCc1c2c(nc3ccc(O)cc13)-c1cc3c(c(=O)n1C2)COC(=O)[C@]3(O)CC [SN38] |  |  |  |  |  | EC50 (L. infantum WT strain): 4.73 ± 0.14 µM; EC50 ([3]; CPT-resistant L. infantum promastigotes selected up to 20 μM CPT): 40.98 ± 0.3 µM
CC[C@@]1(O)C(=O)OCc2c1cc1n(c2=O)Cc2cc3c(CN(C)C)c(O)ccc3nc2-1 [topotecan] |  |  |  |  |  | EC50 (L. infantum WT strain; Leishmania infantum): 9.54 ± 0.22 µM; EC50 ([3]; Leishmania infantum): > 100 µM
